The text below walks through data of US5068198A, “Liquid single reagent for assays involving confining gels” (Syntex (U.S.A.) Inc., priority 1989, dated 1991).

Like-named read-outs stand apart in the source and are kept apart here.

Experiment [1] concerns Anti-digoxin.
Protocol: Reagent: Digoxin-G6PDH encapsulated
in liposomes (POPC 70%, POPG
Anti-digoxin optimized for
response, 0.13M G6P, RSA (20
Diluent: 0.5% Triton, 4 mM NAD, 5mM
Protocol: 50 μl of the reagent was drawn up into a diluter and dispensed with 200 μl of buffer containing RSA (1 mg/ml) into a 1 ml Croan cup. A 50 μl aliquot of the sample was drawn up and dispersed with 700 μl of diluent into the Croan cup. Immediately after sample addition, the entire sample was aspirated into a flow cell and readings were taken at 30° over thirty seconds.
In experiment [2] the test system is Anti-digoxin. This is another data set of the same source.
From the text: As a comparison to the assay using a single liquid reagent an assay was run using unencapsulated enzyme conjugate and antibody in separate liquid reagents. The reagent quantities and the final volume of the assay were arranged to be identical to those in the single reagent assay above in Example 3.
Experiment [3] concerns monoclonal anti-theophylline. Nature of the experiment: Assay for theophylline using encapsulated Theophylline-G6PDH as a single liquid reagent. Format: biochemical. The protocol:
Theophylline-G6PDH was encapsulated in liposomes (POPC 76%, POPG 4%, and cholesterol 20%) and used in an assay for theophylline. The assay employed the following reagents:
Protocol 0.3 ml of the Reagent dispensed into a Croan cup.

For the next experiment, the system named is G6PDH. Briefly: Inhibition of G6PDH by encapsulated and free Anti-G6PDH, with or without Triton. Format: biochemical. The conditions noted are these: Triton 5%; in words. The protocol: Anti-G6PDH was encapsulated in liposome. The liposome composition was L-α-dioleoyl lecithin (70%) and L-α-dioleoyl phosphatidyl glycerol (30%).
Enzyme: G6PDH, dissolved in buffer
Free Antibody: Anti-G6PDH, in buffer
Substrate: 0.13M G6P, 0.08M NAD, and
Protocol: 50 μl of enzyme (270 ng) was mixed with 50 μl of free or encapsulated antibody and 0.6 ml Buffer containing (1 mg/ml) with or without 5% Triton. After one hour at ambient temperature, 50 μl of substrate was added together with 0.3 ml buffer.

Setting [4] is: digoxin 0.083 μg/ml, 30°, thirty seconds.

For `C[C@H]1O[C@@H](O[C@H]2[C@@H](O)C[C@H](O[C@H]3[C@@H](O)C[C@H](O[C@H]4CC[C@@]5(C)[C@H](CC[C@@H]6[C@@H]5C[C@@H](O)[C@]5(C)[C@@H](C7=CC(=O)OC7)CC[C@]65O)C4)O[C@@H]3C)O[C@@H]2C)C[C@H](O)[C@@H]1O` [Digoxin, digoxin], the “enzyme activity, Single Reagent” value was 403 EU with Anti-digoxin [1] (setting [4]); 440 EU in the experiment on Anti-digoxin [1] (digoxin 0.166 μg/ml); 511 EU in the experiment with Anti-digoxin [1] (digoxin 0.333 μg/ml); 584 EU in the experiment on Anti-digoxin [1] (digoxin 0.666 μg/ml); 628 EU with Anti-digoxin [1] (digoxin 1.33 μg/ml); 653 EU with Anti-digoxin [1] (digoxin 2.66 μg/ml). In addition, the “enzyme activity, Single Reagent” value with Anti-digoxin [1] (digoxin 10.65 μg/ml) is 665 EU. Besides, the “enzyme activity, Two Reagent” value is given as 410 EU with Anti-digoxin [2] (setting [4]); 456 EU with Anti-digoxin [2] (digoxin 0.166 μg/ml); 518 EU with Anti-digoxin [2] (digoxin 0.333 μg/ml); 603 EU with Anti-digoxin [2] (digoxin 0.666 μg/ml); 645 EU in the experiment with Anti-digoxin [2] (digoxin 1.33 μg/ml); 678 EU in the experiment on Anti-digoxin [2] (digoxin 2.66 μg/ml). The “enzyme activity, Two Reagent” value came to 713 EU in the experiment with Anti-digoxin [2] (digoxin 5.33 μg/ml) and 717 EU in the experiment on Anti-digoxin [2] (digoxin 10.65 μg/ml).
With `Cn1c(=O)c2[nH]cnc2n(C)c1=O` [Theophylline, theophylline], the “enzyme activity, Single Reagent” value in experiment [3] (theophylline 2.5 μg/ml, 30°, thirty second read) amounted to 356 Eu; in experiment [3] (theophylline 5 μg/ml), 394 Eu; in experiment [3] (theophylline 10 μg/ml), 455 Eu; in experiment [3] (theophylline 20 μg/ml), 537 Eu; in experiment [3] (theophylline 40 μg/ml) it was 610 Eu.
As for Triton, in the experiment on G6PDH, the “effect of Triton on enzyme activity or extent of inhibition in enzyme by antibody” value was “did not affect”.
